The values below come from ChEMBL document CHEMBL1201862, “PubChem BioAssay data set” (2004).

Active and inactive are the calls of the source.

A short description of data set [1]: NIH3T3 cell viability loss – ATP luminescence, mouse fibroblasts, counter-screen, dose response (AID 2010).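 Note: cells exposed to compound for about 90 hours before reading.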 The format is functional, cell-based. A general note: The purpose of a counterscreen is to sort out artefacts and off-target activity.
Data set [2] can be described thus: Trypanosoma cruzi growth suppression in host cells – NIH3T3 host cells, beta-gal luminescence, confirmation (AID 2044).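 Note: intracellular parasites grown in NIH/3T3 mouse fibroblasts as host cells; luminescent beta-galactosidase reporter signal from transgenic T. cruzi replicating inside host cells; inhibitors lower the luminescence signal.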 The format is functional, cell-based.
The nature of data set [3]: NIH-3T3 fibroblast cytotoxicity, dose response, cytotoxicity control, cell-based, fluorescence, Alamar Blue, secondary assay (AID 2327).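 Note: NIH-3T3 mouse fibroblasts cultured with fluconazole at 8 µg/mL.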 The data set is classed as functional.
Data set [4] in a line: fluconazole-exposed Candida albicans growth modulators – fluorescence, retest, confirmation (AID 2467). The format is functional, cell-based.
Data set [5] has as its target T1, Cytochrome P450 1A2 (Homo sapiens, UniProt P05177).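 Note: PubChem cytochrome P450 panel assay, CYP1A2 panel member.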
T1 sequence (P05177 whole entry): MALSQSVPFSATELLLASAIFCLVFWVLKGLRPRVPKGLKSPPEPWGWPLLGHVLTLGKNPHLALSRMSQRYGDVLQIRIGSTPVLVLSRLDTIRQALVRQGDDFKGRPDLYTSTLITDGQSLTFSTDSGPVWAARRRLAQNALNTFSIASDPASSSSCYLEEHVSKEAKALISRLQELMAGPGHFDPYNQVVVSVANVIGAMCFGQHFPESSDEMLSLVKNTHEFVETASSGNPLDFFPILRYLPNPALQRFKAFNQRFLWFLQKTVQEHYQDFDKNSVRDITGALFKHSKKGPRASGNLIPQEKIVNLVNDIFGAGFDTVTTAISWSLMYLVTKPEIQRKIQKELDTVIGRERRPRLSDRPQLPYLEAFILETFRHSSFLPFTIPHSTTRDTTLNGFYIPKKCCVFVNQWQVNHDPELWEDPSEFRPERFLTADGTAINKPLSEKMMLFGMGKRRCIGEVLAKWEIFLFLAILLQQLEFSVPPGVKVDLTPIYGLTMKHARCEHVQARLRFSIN

In data set [6] the target is Cytochrome P450 2C19 (Homo sapiens, UniProt P33261). The experiment in a line: Cytochrome panel assay with activity outcomes. Panel member name: p450-cyp2c19 Compounds with AC50 equal or less than 10 uM are considered active. The data set is classed as functional.
Sequence of Cytochrome P450 2C19 (P33261 whole entry): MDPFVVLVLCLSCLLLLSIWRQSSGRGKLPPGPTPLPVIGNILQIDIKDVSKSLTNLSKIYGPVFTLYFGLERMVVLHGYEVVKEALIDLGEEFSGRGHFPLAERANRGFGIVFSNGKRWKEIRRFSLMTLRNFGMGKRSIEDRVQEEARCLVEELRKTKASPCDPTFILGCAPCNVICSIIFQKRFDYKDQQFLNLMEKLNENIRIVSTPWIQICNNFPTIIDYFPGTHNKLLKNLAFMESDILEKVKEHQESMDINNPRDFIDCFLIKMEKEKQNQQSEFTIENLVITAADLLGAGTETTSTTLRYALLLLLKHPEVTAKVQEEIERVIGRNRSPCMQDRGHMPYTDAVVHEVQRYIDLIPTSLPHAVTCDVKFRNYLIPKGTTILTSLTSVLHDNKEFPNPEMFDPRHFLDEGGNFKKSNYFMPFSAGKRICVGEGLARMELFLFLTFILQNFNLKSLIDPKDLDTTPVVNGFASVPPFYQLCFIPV
For data set [7], the target named is T2, Corticotropin-releasing factor receptor 2/Corticotropin-releasing factor-binding protein (Homo sapiens, UniProt P24387+Q13324).
T2 sequence (Q13324 whole entry): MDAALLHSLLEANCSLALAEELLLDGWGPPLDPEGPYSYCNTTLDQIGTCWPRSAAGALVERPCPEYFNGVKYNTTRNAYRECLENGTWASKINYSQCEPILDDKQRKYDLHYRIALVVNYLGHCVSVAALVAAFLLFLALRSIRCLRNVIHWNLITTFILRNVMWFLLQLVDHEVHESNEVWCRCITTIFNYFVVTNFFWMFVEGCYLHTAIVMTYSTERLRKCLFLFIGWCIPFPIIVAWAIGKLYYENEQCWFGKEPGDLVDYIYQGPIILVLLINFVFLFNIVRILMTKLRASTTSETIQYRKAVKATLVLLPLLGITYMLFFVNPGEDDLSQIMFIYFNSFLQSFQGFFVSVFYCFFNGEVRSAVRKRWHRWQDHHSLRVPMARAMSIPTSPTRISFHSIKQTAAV
T2 sequence (P24387 whole entry): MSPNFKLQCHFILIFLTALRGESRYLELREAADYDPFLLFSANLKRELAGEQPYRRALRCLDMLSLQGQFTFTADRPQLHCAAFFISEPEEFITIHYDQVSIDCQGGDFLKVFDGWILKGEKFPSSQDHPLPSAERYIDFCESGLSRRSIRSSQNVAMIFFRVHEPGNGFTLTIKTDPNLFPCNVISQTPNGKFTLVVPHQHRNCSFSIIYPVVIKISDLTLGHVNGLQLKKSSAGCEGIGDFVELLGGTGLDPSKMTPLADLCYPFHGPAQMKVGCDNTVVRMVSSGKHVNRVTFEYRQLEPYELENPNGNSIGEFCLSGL
In words: activators of CRF receptor 2 with binding protein – uHTS hits, confirmation (AID 602473). The format is functional. To be noted: read-out: EC50_Mean.

Data set [8] has as its target Cytochrome P450 2C9 (Homo sapiens, UniProt P11712).

Sequence of Cytochrome P450 2C9 (P11712 whole entry): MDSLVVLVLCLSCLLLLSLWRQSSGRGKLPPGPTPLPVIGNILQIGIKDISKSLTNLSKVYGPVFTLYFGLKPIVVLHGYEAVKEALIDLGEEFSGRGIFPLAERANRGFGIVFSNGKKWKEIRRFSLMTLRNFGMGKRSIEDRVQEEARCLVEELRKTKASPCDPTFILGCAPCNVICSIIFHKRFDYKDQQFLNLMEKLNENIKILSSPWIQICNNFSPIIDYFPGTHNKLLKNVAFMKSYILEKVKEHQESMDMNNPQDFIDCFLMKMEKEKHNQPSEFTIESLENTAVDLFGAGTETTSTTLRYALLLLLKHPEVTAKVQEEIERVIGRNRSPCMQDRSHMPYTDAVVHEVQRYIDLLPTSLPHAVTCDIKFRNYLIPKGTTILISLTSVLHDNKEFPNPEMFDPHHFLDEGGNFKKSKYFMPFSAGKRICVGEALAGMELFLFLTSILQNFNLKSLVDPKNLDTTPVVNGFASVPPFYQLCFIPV

As for `O=C(Nc1ccncc1)Nc1cc(Cl)ccc1Cl`, the EC50 was > 30 µM (not active) in data set [1] and 0.469 µM (active) in data set [2].
For `O=C(Nc1cccc(C(F)(F)F)c1)c1cccnc1`, the values for the EC50 in data set [3] and in data set [4] were > 160 µM (inactive) and 4.39 µM (active), respectively.
The AC50 is the concentration at which the activity in the assay is half-maximal. On to `Cc1ccc(COc2coc(CO)cc2=O)cc1`, for which the AC50 in data set [5] was 15.8 µM (inconclusive).
With `COC(=O)c1cc2c(ccn2-c2ccc(F)cc2)n1Cc1ccc(OC(C)=O)cc1`, the EC50 is > 60 µM (not active) in data set [1] and 2.84 µM (active) in data set [2].
On to `Cc1ccc(C)c(S(=O)(=O)NC(CC(C)C)C(=O)O)c1` (stereo not given), for which the half-maximal activity concentration (AC50) in data set [6] (read-out: AC50) is 39.8 µM (inconclusive).
Turning to `Cc1cc(Cl)ccc1OC(C)C(=O)Nc1ccccc1N1CCOCC1` (stereo not given), the EC50 in data set [7] is 6 µM (active).
Consider `Cc1c(Nc2scc(-c3ccccc3)[n+]2-c2ccccc2)c(=O)n(-c2ccccc2)n1C`, for which the EC50 is 18 µM (active) in data set [3] and 0.111 µM (active) in data set [4].
Regarding `O=C(C1=C[C@@H](c2csc3ccccc23)C[C@@H](OCc2ccc(CO)cc2)O1)N1CCN(Cc2ccccc2)CC1`, the figures for the EC50 in data set [1] and in data set [2] were > 60 µM (not active) and 0.888 µM (active), respectively.
With `CCCCNC(=O)c1cn(C)c2ccc(S(=O)(=O)N3CCCC3)cc2c1=O`, in data set [3], the EC50 is > 150 µM (inactive).
With `CN1CCN(S(=O)(=O)c2ccc3ncc(C(=O)O)c(O)c3c2)CC1`, the AC50 in data set [6] (read-out: AC50) was 22.4 µM (inconclusive).
As for `Cc1ccc2c3ncn(Cc4ccco4)c(O)c-3nc2c1`, the EC50 in data set [7] is > 53 µM (inactive).
As to `Cc1cc(C(=O)N[C@@H](c2ccccc2)[C@]2(C)C[C@H]2[C@@H](C)C(=O)Nc2ccc3ccccc3c2)n(C)n1`, the AC50 in data set [5] was 12.6 µM (inconclusive).
As for `Cc1onc(-c2ccccc2)c1CNC(=O)Nc1ccc(C(F)(F)F)cc1`, the values for the EC50 in data set [1] and in data set [2] were > 60 µM (not active) and 4.33 µM (active), respectively.
Turning to `CC(C)CNS(=O)(=O)c1cc(C(=O)N2CC(C)OC(C)C2)c(Cl)cc1Cl` (stereo not given), the AC50 in data set [6] (read-out: AC50) and in data set [8] was 25.1 µM (inconclusive) throughout.
As for `O=C1NCCc2c1[nH]c1ccccc21`, the AC50 in data set [6] (read-out: AC50) is 15.8 µM (inconclusive).
For the molecule `Cc1nn(Cc2ccc(Cl)cc2)c(C)c1NC(=O)CCCn1nc([N+](=O)[O-])c(Cl)c1C`, the values for the EC50 in data set [1] and in data set [2] were > 30 µM (not active) and 0.318 µM (active), respectively.
`Cc1cccc2c1Oc1ccccc1[C@@H]2NC(=O)c1ccc([N+](=O)[O-])cc1`: the AC50 in data set [8] is 7.94 µM (inconclusive).
Consider `OCC[n+]1ccc(/C=C/c2c[nH]c3ccccc23)cc1`, for which, in data set [7], the EC50 is 8.55 µM (active).
`Cc1cccc(OCC(=O)N2CCC(N3CCCCCC3)CC2)c1`: the AC50 in data set [6] (read-out: AC50) is 39.8 µM (inconclusive).
As to `CC(C)CN(C(=O)c1cc([N+](=O)[O-])cc([N+](=O)[O-])c1)C1CCS(=O)(=O)C1` (stereo not given), the EC50 in data set [1] was > 30 µM (not active); in data set [2], 1.31 µM (active).
Take `CC1=CC(=C(C#N)c2nc3ccccc3s2)C=C(C)N1c1ccc(F)cc1F`: the EC50 in data set [7] was 10.2 µM (active).
On to `CCc1ccc(-n2nnnc2SCC(=O)Nc2ccc(NC(C)=O)cc2)cc1`, for which the EC50 in data set [1] was > 60 µM (not active); in data set [2], 2.19 µM (active).
With `COCC(=O)N1CCC2(CC1)CCN(c1cccc(-c3ccccc3)c1)CC2`, in data set [6] (read-out: AC50), the AC50 was 39.8 µM (inconclusive).
In the case of `CC(CCc1ccccc1)NC(=O)C(=O)NCCO` (stereo not given), the AC50 in data set [8] is 0.794 µM (inconclusive).
Regarding `O=C(COC(=O)c1cnccn1)NCc1ccccc1`, the AC50 was 39.8 µM (inconclusive) in data set [6] (read-out: AC50) and 12.6 µM (inconclusive) in data set [8].
For `O=[N+]([O-])c1ccc2[nH]c(-[n+]3c(-c4ccccc4)cc(-c4ccccc4)cc3-c3ccccc3)nc2c1`, the EC50 in data set [1] is > 60 µM (not active); in data set [2], 1.18 µM (active).
With `Cc1ccc(C(=O)N2CCN(c3cc(O)nnc3-c3ccccc3)CC2)cc1`, the AC50 in data set [8] was 31.6 µM (inconclusive).
Regarding `Cc1cccc2cc(CN(Cc3cccnc3)C(=O)c3ccccc3F)c(Cl)nc12`, the EC50 is > 60 µM (not active) in data set [1] and 0.204 µM (active) in data set [2].
On to `Cc1cccc(C)c1NC(=S)NC(=O)CCc1ccccc1`, for which the values for the AC50 in data set [5] and in data set [8] were 22.4 µM (inconclusive) and 25.1 µM (inconclusive), respectively.
On to `CCC(=O)Nc1cccc(NC(=O)c2cccc([N+](=O)[O-])c2)c1`, for which the AC50 result in data set [6] is “inconclusive”; in data set [8], 17.8 µM (inconclusive).
On to `O=C(c1ccc2c(=O)n(Cc3ccco3)c(=S)[nH]c2c1)N1CCN(c2ccccc2)CC1`, for which the AC50 in data set [5] was 3.16 µM (inconclusive); in data set [8], 25.1 µM (inconclusive).
On to `CC(=O)NC(NC(C)=O)c1ccc(Br)cc1`, for which the half-maximal activity concentration (AC50) in data set [5] was 10 µM (inconclusive).
Take `Cc1c(C(=O)Nc2cccc(Cl)c2)c2ccccn2c1CCc1ccncc1`: the EC50 in data set [1] is > 30 µM (not active); in data set [2], 1.19 µM (active).
For `COCCn1c(=O)c(-c2cccc(C#N)c2)nc2cnc(Oc3ccccc3)nc21`, the AC50 in data set [6] (read-out: AC50) is 39.8 µM (inconclusive).
Turning to `COc1ccc(OC)c(CN2CCN(C(=O)CCNC(=O)c3ccc(Br)cc3)CC2)c1`, the EC50 was > 60 µM (not active) in data set [1] and 0.563 µM (active) in data set [2].
In the same order, the values of `COCCCn1c(SCc2ccccc2)nc2cc(OC)c(OC)cc2c1=N` are 11.5 µM (active) and 1.69 µM (active).
With `CC(C)(Oc1ccc([C@@H]2CC2(Cl)Cl)cc1)C(=O)O`, the AC50 in data set [8] was 31.6 µM (inconclusive).
As for `COc1ccc(CN2CCN(Cc3nc4ccccc4s3)CC2CCO)c(C)c1C` (stereo not given), the EC50 in data set [1] was > 60 µM (inconclusive); in data set [2], 0.132 µM (active).
For `O=C(CSc1nc(=O)n2ccccc2n1)N1N=C(c2cccs2)CC1c1ccc(F)cc1` (stereo not given), the figures for the EC50 in data set [1] and in data set [2] were > 60 µM (not active) and 1.51 µM (active), respectively.
As for `COc1ccc(-n2c(=O)c(-c3cccs3)nc3cnc(Nc4ccccc4)nc32)cc1`, the concentration at half-maximal activity (AC50) in data set [5] was 31.6 µM (inconclusive).
With `C=CCc1cccc(/C=N/NC(=O)c2ccccc2Br)c1O`, the EC50 in data set [1] is 8.77 µM (active); in data set [2], 1.72 µM (active).
On to `CC[N+](CC)(CC)CCOc1ccc(/C=C\c2ccccc2)cc1`, for which, in data set [5], the AC50 was 31.6 µM (inconclusive).
With `COC(=O)c1[nH]c2ccccc2c1NC(=O)CN1CCCc2ccccc21`, the EC50 in data set [1] was > 60 µM (not active); in data set [2] it was 0.89 µM (active).
In the case of `N=C(N)NCc1cccc(I)c1` [IOBENGUANE], the AC50 in data set [5] was 12.6 µM (inconclusive).
Regarding `CC1CCN(CCOc2cc(Cl)ccc2Cl)CC1`, the AC50 in data set [8] was 0.891 µM (inconclusive).
Take `CCCC[C@H]1C[C@@H]1[C@@H]1N(P(=O)(c2ccccc2)c2ccccc2)[C@](CO)(c2ccccc2)CC12CC2`: the AC50 in data set [6] (read-out: AC50) is 7.94 µM (inconclusive).
As to `COc1ccccc1N(CC(=O)NCC1CCCO1)C(=O)CNS(=O)(=O)c1ccc(C)cc1` (stereo not given), the AC50 in data set [6] (read-out: AC50) was 35.5 µM (inconclusive); in data set [8], 31.6 µM (inconclusive).
Turning to `Cc1ccc(S(=O)(=O)c2nc(NCc3ccc4c(c3)OCO4)sc2Cl)cc1`, the EC50 is > 60 µM (not active) in data set [1] and 0.39 µM (active) in data set [2].
As for `NC(=S)N/N=C/c1ccc(-n2nncc2-c2ccc(Cl)cc2)cc1`, the EC50 in data set [1] is > 60 µM (not active); in data set [2], 1.64 µM (active).
